From patent US20200000704A1, “DEGRADATION INHIBITOR OF HYALURONIC ACID, COMPRISING ROSEMARY EXTRACT AND RETINOL ACETATE” (Shiseido Company, Ltd., priority 2012, published 2020) come the findings set out here.

“Also recorded” adds a separate entry of the source.

In the test the test system is hyaluronidase. The experiment in a line: Examination for inhibiting hyaluronic acid degradation (hyaluronidase inhibition, p-DMAB colour reaction, OD 585 nm). The format is biochemical. Conditions: final concentration: rosemary extract BG 0.000165 w/w % at dry weight, retinol acetate 0.0000516 w/w %; substrate sodium hyaluronate; absorbance OD 585 nm with control (water) adjusted to 100; FIG. 1. Here is the method:
50 μl hyaluronidase solution (1 mg/ml) (Sigma Aldrich Japan K.K.) was placed into a microtube, and 50 μl of an evaluation drug was added, and then the mixture was incubated for 10 min at 37° C. Rosemary extract BG (Maruzen Pharmaceuticals, Co., Ltd.), retinol acetate (BASF Japan Ltd.), and rosemary extract and retinol acetate were used as the evaluation drug, and water was used as a control instead of the evaluation agent. Rosemary extract BG was added so that the final concentration thereof after addition of hyaluronic acid sodium aqueous solution was 0.000165 w/w % at dry weight. Retinol acetate was added so that the final concentration thereof after addition of hyaluronic acid sodium aqueous solution was 0.0000516 w/w %. After incubation, 400 μl of 1 mg/ml sodium hyaluronate (Shiseido Co., Ltd., MW 1,100,000-1,600,000) was added to the solution, and then incubated at 37° C., for 10 min, and then 50 μl of sodium hydroxide (0.2 M) was added to stop the reaction. This solution was boiled for 3 min, then cooled with flowing water. 300 μl of 10% p-DMAB (dimethylaminobenzaldehyde) solution (NACALAI TESQUE, Inc.) was added to the solution, and then incubated for 37° C. for 20 min. After bringing it back to room temperature, 100 μl of each solution was poured into each well of 96 well-plate, and OD 585 nm was determined by using […] Pharma Biomedical Co., Ltd.).

Consider retinol acetate, for which the hyaluronidase inhibitory activity entry is reported as “does not have a hyaluronidase activity; also recorded: did not have a hyaluronidase inhibitory activity”.
